#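 Results reflect a 48-hour exposure of cells in 96-well plates to compound at five concentrations. The concentration for 50% growth inhibition is given as GI50. The concentration for full growth arrest is given as TGI.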
# Columns and labels:
# Assay in all cases: inhibition of tumour cell growth, NCI panel, 48 h
# 786-0 renal = test system: 786-0 renal
# SNB-75 CNS = test system: SNB-75 CNS
# SR leukemia = test system: SR leukemia
# HS 578T breast = test system: HS 578T breast
# CCRF-CEM leukemia = test system: CCRF-CEM leukemia
# HOP-92 NSCLC = test system: HOP-92 NSCLC
# UO-31 renal = test system: UO-31 renal
# MDA-MB-435 = test system: MDA-MB-435
# HL-60(TB) leukemia = test system: HL-60(TB) leukemia
# HCT-15 colon = test system: HCT-15 colon
# HT29 colon = test system: HT29 colon
# NCI-H460 lung = test system: NCI-H460 lung
# SK-MEL-5 melanoma = test system: SK-MEL-5 melanoma
# NCI/ADR-RES ovarian = test system: NCI/ADR-RES ovarian
# CAKI-1 renal = test system: CAKI-1 renal
# HOP-62 NSCLC = test system: HOP-62 NSCLC
# KM12 colon = test system: KM12 colon
# OVCAR-5 ovarian = test system: OVCAR-5 ovarian
# SK-MEL-28 melanoma = test system: SK-MEL-28 melanoma
# OVCAR-4 ovarian = test system: OVCAR-4 ovarian
# EKVX NSCLC = test system: EKVX NSCLC
# UACC-62 melanoma = test system: UACC-62 melanoma
# IGROV1 ovarian = test system: IGROV1 ovarian
# OVCAR-3 ovarian = test system: OVCAR-3 ovarian
# MDA-MB-231 breast = test system: MDA-MB-231 breast
# SW-620 colon = test system: SW-620 colon
# HCC-2998 colon = test system: HCC-2998 colon
# DU-145 prostate = test system: DU-145 prostate
# SK-OV-3 ovarian = test system: SK-OV-3 ovarian
# COLO 205 colon = test system: COLO 205 colon
# TK-10 renal = test system: TK-10 renal
# A498 renal = test system: A498 renal
# A549 NSCLC = test system: A549 NSCLC
# MALME-3M melanoma = test system: MALME-3M melanoma
# MDA-MB-468 breast = test system: MDA-MB-468 breast
# SF-539 CNS = test system: SF-539 CNS
# RPMI-8226 leukemia = test system: RPMI-8226 leukemia
# BT-549 breast = test system: BT-549 breast
# SNB-19 CNS = test system: SNB-19 CNS
# RXF 393 renal = test system: RXF 393 renal
# NCI-H226 lung = test system: NCI-H226 lung
# T-47D breast = test system: T-47D breast
# M14 melanoma = test system: M14 melanoma
# SN12C renal = test system: SN12C renal
# PC-3 prostate = test system: PC-3 prostate
# MOLT-4 leukemia = test system: MOLT-4 leukemia
# HCT-116 colon = test system: HCT-116 colon
# SK-MEL-2 melanoma = test system: SK-MEL-2 melanoma
# NCI-H522 lung = test system: NCI-H522 lung
# SF-268 CNS = test system: SF-268 CNS
# U251 CNS = test system: U251 CNS
# UACC-257 melanoma = test system: UACC-257 melanoma
# NCI-H23 lung = test system: NCI-H23 lung
# ACHN renal = test system: ACHN renal
# OVCAR-8 ovarian = test system: OVCAR-8 ovarian
smiles,measurement,setting,value
Cn1cc(-c2cc(N)n3nc(-c4cn(C)c5ccccc45)cc3n2)c2cc(Br)ccc21,GI50,786-0 renal,1570 nM
same,TGI,786-0 renal,2990 nM
same,GI50,SNB-75 CNS,2410 nM
same,TGI,SNB-75 CNS,9.59 µM
same,GI50,SR leukemia,1700 nM
same,TGI,SR leukemia,7.3 µM
same,GI50,HS 578T breast,2440 nM
same,TGI,HS 578T breast,5.92 µM
same,GI50,CCRF-CEM leukemia,2870 nM
same,TGI,CCRF-CEM leukemia,11.7 µM
same,GI50,HOP-92 NSCLC,1480 nM
same,TGI,HOP-92 NSCLC,3.16 µM
same,GI50,UO-31 renal,1480 nM
same,TGI,UO-31 renal,2850 nM
same,GI50,MDA-MB-435,1870 nM
same,TGI,MDA-MB-435,3.67 µM
same,GI50,HL-60(TB) leukemia,2080 nM
same,TGI,HL-60(TB) leukemia,5.53 µM
same,GI50,HCT-15 colon,1710 nM
same,TGI,HCT-15 colon,4.59 µM
same,GI50,HT29 colon,1700 nM
same,TGI,HT29 colon,3.25 µM
same,GI50,NCI-H460 lung,1960 nM
same,TGI,NCI-H460 lung,4.03 µM
same,GI50,SK-MEL-5 melanoma,1890 nM
same,TGI,SK-MEL-5 melanoma,3.5 µM
same,GI50,NCI/ADR-RES ovarian,2450 nM
same,TGI,NCI/ADR-RES ovarian,6.77 µM
same,GI50,CAKI-1 renal,1440 nM
same,TGI,CAKI-1 renal,2960 nM
same,GI50,HOP-62 NSCLC,2240 nM
same,TGI,HOP-62 NSCLC,6.01 µM
same,GI50,KM12 colon,2020 nM
same,TGI,KM12 colon,4.66 µM
same,GI50,OVCAR-5 ovarian,2550 nM
same,TGI,OVCAR-5 ovarian,7.8 µM
same,GI50,SK-MEL-28 melanoma,1720 nM
same,TGI,SK-MEL-28 melanoma,3.14 µM
same,GI50,OVCAR-4 ovarian,2460 nM
same,TGI,OVCAR-4 ovarian,6.34 µM
same,GI50,EKVX NSCLC,1750 nM
same,TGI,EKVX NSCLC,6.71 µM
same,GI50,UACC-62 melanoma,1580 nM
same,TGI,UACC-62 melanoma,3.05 µM
same,GI50,IGROV1 ovarian,1820 nM
same,TGI,IGROV1 ovarian,5.07 µM
same,GI50,OVCAR-3 ovarian,2220 nM
same,TGI,OVCAR-3 ovarian,5.16 µM
same,GI50,MDA-MB-231 breast,1700 nM
same,TGI,MDA-MB-231 breast,3.12 µM
same,GI50,SW-620 colon,2160 nM
same,TGI,SW-620 colon,5 µM
same,GI50,HCC-2998 colon,1810 nM
same,TGI,HCC-2998 colon,3.49 µM
same,GI50,DU-145 prostate,4.96 µM
same,TGI,DU-145 prostate,> 100 µM
same,GI50,SK-OV-3 ovarian,3.72 µM
same,TGI,SK-OV-3 ovarian,17.2 µM
same,GI50,COLO 205 colon,1950 nM
same,TGI,COLO 205 colon,3.9 µM
same,GI50,TK-10 renal,2190 nM
same,TGI,TK-10 renal,4.81 µM
same,GI50,A498 renal,1740 nM
same,TGI,A498 renal,3.89 µM
same,GI50,A549 NSCLC,2440 nM
same,TGI,A549 NSCLC,> 100 µM
same,GI50,MALME-3M melanoma,1660 nM
same,TGI,MALME-3M melanoma,3.08 µM
same,GI50,MDA-MB-468 breast,1570 nM
same,TGI,MDA-MB-468 breast,3.73 µM
same,GI50,SF-539 CNS,1580 nM
same,TGI,SF-539 CNS,3.09 µM
same,GI50,RPMI-8226 leukemia,2480 nM
same,TGI,RPMI-8226 leukemia,8.15 µM
same,GI50,BT-549 breast,2290 nM
same,TGI,BT-549 breast,5.65 µM
same,GI50,SNB-19 CNS,3.24 µM
same,TGI,SNB-19 CNS,25.9 µM
same,GI50,RXF 393 renal,1800 nM
same,TGI,RXF 393 renal,3.46 µM
same,GI50,NCI-H226 lung,25.1 µM
same,TGI,NCI-H226 lung,> 100 µM
same,GI50,T-47D breast,2070 nM
same,TGI,T-47D breast,5.7 µM
same,GI50,M14 melanoma,1820 nM
same,TGI,M14 melanoma,3.68 µM
same,GI50,SN12C renal,1660 nM
same,TGI,SN12C renal,3.18 µM
same,GI50,PC-3 prostate,1870 nM
same,TGI,PC-3 prostate,4.69 µM
same,GI50,MOLT-4 leukemia,1600 nM
same,TGI,MOLT-4 leukemia,7.55 µM
same,GI50,HCT-116 colon,1590 nM
same,TGI,HCT-116 colon,2930 nM
same,GI50,SK-MEL-2 melanoma,1680 nM
same,TGI,SK-MEL-2 melanoma,3.36 µM
same,GI50,NCI-H522 lung,1550 nM
same,TGI,NCI-H522 lung,3.21 µM
same,GI50,SF-268 CNS,2660 nM
same,TGI,SF-268 CNS,8.95 µM
same,GI50,U251 CNS,1790 nM
same,TGI,U251 CNS,3.65 µM
same,GI50,UACC-257 melanoma,1730 nM
same,TGI,UACC-257 melanoma,3.34 µM
same,GI50,NCI-H23 lung,2360 nM
same,TGI,NCI-H23 lung,7.02 µM
same,GI50,ACHN renal,1780 nM
same,TGI,ACHN renal,4.05 µM
same,GI50,OVCAR-8 ovarian,1830 nM
same,TGI,OVCAR-8 ovarian,3.67 µM

# Reference: PubChem BioAssay (NCI)
